As a reminder, the IC50 is the midpoint of a concentration-inhibition curve.

Data set [1] is classed as in vitro ADME. Particulars: 0 min, pH 7.4. Here is the method:
The liver is the main organ of drug metabolism in the body. Subcellular fractions such as liver microsomes are useful in vitro models of hepatic clearance as they contain many of the drug metabolising enzymes found in the liver. Liver microsomes are subcellular fractions which contain membrane bound drug metabolising enzymes. The microsomes are incubated with the test compound at 37° C. in the presence of the co-factors, which initiates the reaction. The reaction is terminated by the addition of organic solvents containing internal standard. Following centrifugation, the supernatant is analysed on the LC-MS/MS. The disappearance of test compound is monitored over certain time period. Here, a microsome stability assay was used to investigate the metabolism of the compounds; using this assay it is possible to measure in vitro the intrinsic clearance or to identify metabolites formed. For a standard assay the following solutions were used: 360 μL Microsomal solution (1.1 mg/mL in phosphate buffer), 360 μL NADP-regeneration mix (containing NADP (10 mM), MgCl2 (50 mM), glucose-6-phosphate (50 mM), glucose-6-phosphate dehydrogenase (50 U/ml)) and 40 μL phosphate buffer (100 mM, pH 7.4). […] 5 uL of each sample was injected to a UPLC/HRMS system and the peak areas of the extracted ion chromatograms were determined

The target in data set [2] is Cathepsin B (Homo sapiens, UniProt P07858). Particulars: reported in literature; cells printed in μM; read-out: Cathepsin B, reported inhibitory activity as IC50 value; cited from earlier work.
Data set [3] has as its system Trypsin. Particulars: reported in literature; cited from earlier work.

For the molecule `O=C(O)Cc1ccccc1Nc1c(Cl)cccc1Cl` [Diclo, Diclofenac], the “Area rel. [%], PC” value in data set [1] came out at 100.0%. With `CC[C@H](NC(=O)C[C@H](O)[C@H](CC(C)C)NC(=O)[C@H](CC(C)C)NC(=O)[C@@H]1N[C@H]1C(=O)O)C(=O)N[C@H](/C=C/C(=O)O)CCCNC(=N)N` [Miraziridine A], the IC50 was 2.05 µM in data set [2] and 60 µM in data set [3].

Source of the values: patent publication US20230202973A1, “BARNESIN A, DERIVATIVES AND USES THEREOF” (Leibniz-Institut Für Naturstoff-Forschung Und …, priority 2018, published 2023).
